Measured values reported in patent US6737383B1, “Herbicidal oxadiazolidines” (priority 1999, dated 2004).

Key:
morningglory = assay: Test B pre/postemergence morningglory; type: in vivo, Ipomoea hederacea
Summary of the method: (§1)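 Test chemicals in a non-phytotoxic solvent mixture with surfactant were sprayed preemergence onto planted seeds and postemergence onto plants 2 to 18 cm tall (1- to 4-leaf stage). After twelve to sixteen days in a greenhouse, injury was visually rated against untreated controls from 0 (no effect) to 10 (complete control).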

corn = assay: Test B pre/postemergence corn; type: in vivo, Zea mays
Summary of the method: as §1

velvetleaf = assay: Test B pre/postemergence velvetleaf; type: in vivo, Abutilon theophrasti
Summary of the method: as §1

wheat = assay: Test B pre/postemergence wheat; type: in vivo, Triticum aestivum
Summary of the method: as §1

wild oat = assay: Test B pre/postemergence wild oat; type: in vivo, Avena fatua
Summary of the method: as §1

sugar beet = assay: Test B pre/postemergence sugar beet; type: in vivo, Beta vulgaris
Summary of the method: as §1

bedstraw = assay: Test B pre/postemergence bedstraw; type: in vivo, Galium aparine
Summary of the method: as §1

pigweed = assay: Test B pre/postemergence pigweed; type: in vivo, Amaranthus retroflexus
Summary of the method: as §1

blackgrass = assay: Test B pre/postemergence blackgrass; type: in vivo, Alopecurus myosuroides
Summary of the method: as §1

crabgrass = assay: Test B pre/postemergence crabgrass; type: in vivo, Digitaria sanguinalis
Summary of the method: as §1

soybean = assay: Test B pre/postemergence soybean; type: in vivo, Glycine max
Summary of the method: as §1

rape = assay: Test B pre/postemergence rape; type: in vivo, Brassica napus
Summary of the method: as §1

purple nutsedge = assay: Test B pre/postemergence purple nutsedge; type: in vivo, Cyperus rotundus
Summary of the method: as §1

surinam grass = assay: Test B pre/postemergence surinam grass; type: in vivo, Brachiaria decumbens
Summary of the method: as §1

cocklebur = assay: Test B pre/postemergence cocklebur; type: in vivo, Xanthium strumarium
Summary of the method: as §1

giant foxtail = assay: Test B pre/postemergence giant foxtail; type: in vivo, Setaria faberii
Summary of the method: as §1

[1] = Postemergence, Rate 62 g/ha, scale 0 to 10, 0 is no effect, 10 is complete control
[2] = Postemergence, Rate 125 g/ha, scale of 0 to 10 where 0 is no effect and 10 is complete control
[3] = Preemergence, Rate 62 g/ha, scale of 0 to 10 where 0 is no effect and 10 is complete control
[4] = Preemergence, Rate 125 g/ha, scale of 0 to 10 where 0 is no effect and 10 is complete control
[5] = Preemergence, Rate 250 g/ha, scale 0 (no effect) to 10 (complete control)
[6] = Rate 250 g/ha, Postemergence, scale 0 to 10, 0 is no effect, 10 is complete control
[7] = Rate 500 g/ha, Postemergence, scale 0 to 10, 0 is no effect, 10 is complete control
[8] = Preemergence, Rate 500 g/ha, scale of 0 to 10 where 0 is no effect and 10 is complete control

Compound: CC(C)N(C(=O)n1oc(=O)n(CCCCCl)c1=O)c1ccc(F)cc1 [Compound 712]
- Plant response rating, Morningglory (morningglory; [1]): 3
- Morningglory plant response rating (morningglory; [2]): 4
- Morningglory plant response rating (morningglory; [3]): 0
- Plant response rating, Morningglory (morningglory; [4]): 0
- Morningglory plant response rating (morningglory; [5]): 0
- Morningglory plant response rating (morningglory; [6]): 10
- Morningglory plant response rating (morningglory; [7]): 10
- Plant response rating, Corn (corn; [1]): 0
- Corn plant response rating (corn; [2]): 0
- Corn plant response rating (corn; [3]): 0
- Plant response rating, Corn (corn; [4]): 0
- Corn plant response rating (corn; [5]): 0
- Corn plant response rating (corn; [6]): 0
- Corn plant response rating (corn; [7]): 0
- Plant response rating, Velvetleaf (velvetleaf; [1]): 0
- Velvetleaf plant response rating (velvetleaf; [2]): 5
- Velvetleaf plant response rating (velvetleaf; [3]): 0
- Plant response rating, Velvetleaf (velvetleaf; [4]): 3
- Velvetleaf plant response rating (velvetleaf; [5]): 3
- Velvetleaf plant response rating (velvetleaf; [6]): 6
- Velvetleaf plant response rating (velvetleaf; [7]): 6
- Plant response rating, Wheat (wheat; [1]): 0
- Wheat plant response rating (wheat; [2]): 0
- Wheat plant response rating (wheat; [3]): 0
- Plant response rating, Wheat (wheat; [4]): 0
- Wheat plant response rating (wheat; [5]): 0
- Wheat plant response rating (wheat; [6]): 0
- Wheat plant response rating (wheat; [7]): 5
- Plant response rating, Wild oats (wild oat; [1]): 0
- Wild oats plant response rating (wild oat; [2]): 0
- Wild oats plant response rating (wild oat; [3]): 0
- Plant response rating, Wild oats (wild oat; [4]): 3
- Wild oats plant response rating (wild oat; [5]): 3
- Wild oats plant response rating (wild oat; [6]): 0
- Wild oats plant response rating (wild oat; [7]): 3
- Plant response rating, Sugarbeets (sugar beet; [1]): 1
- Sugarbeets plant response rating (sugar beet; [2]): 3
- Sugarbeets plant response rating (sugar beet; [3]): 0
- Plant response rating, Sugarbeets (sugar beet; [4]): 4
- Sugarbeets plant response rating (sugar beet; [5]): 7
- Sugarbeets plant response rating (sugar beet; [7]): 6
- Bedstraw plant response rating (bedstraw; [3]): 0
- Plant response rating, Bedstraw (bedstraw; [4]): 0
- Bedstraw plant response rating (bedstraw; [5]): 2
- Plant response rating, Bedstraw (bedstraw; [8]): 5
- Bedstraw plant response rating (bedstraw; [7]): 8
- Plant response rating, Redroot pigweed (pigweed; [1]): 3
- Redroot pigweed plant response rating (pigweed; [3]): 6
- Plant response rating, Redroot pigweed (pigweed; [4]): 8
- Redroot pigweed plant response rating (pigweed; [5]): 8
- Redroot pigweed plant response rating (pigweed; [6]): 6
- Redroot pigweed plant response rating (pigweed; [7]): 8
- Plant response rating, Blackgrass (blackgrass; [1]): 0
- Blackgrass plant response rating (blackgrass; [2]): 0
- Blackgrass plant response rating (blackgrass; [3]): 3
- Plant response rating, Blackgrass (blackgrass; [4]): 6
- Blackgrass plant response rating (blackgrass; [5]): 8
- Plant response rating, Blackgrass (blackgrass; [8]): 9
- Blackgrass plant response rating (blackgrass; [6]): 5
- Blackgrass plant response rating (blackgrass; [7]): 6
- Plant response rating, Crabgrass (crabgrass; [1]): 1
- Crabgrass plant response rating (crabgrass; [2]): 4
- Crabgrass plant response rating (crabgrass; [3]): 8
- Plant response rating, Crabgrass (crabgrass; [4]): 9
- Crabgrass plant response rating (crabgrass; [5]): 10
- Crabgrass plant response rating (crabgrass; [6]): 9
- Crabgrass plant response rating (crabgrass; [7]): 9
- Plant response rating, Soybean (soybean; [1]): 2
- Soybean plant response rating (soybean; [2]): 5
- Soybean plant response rating (soybean; [3]): 0
- Plant response rating, Soybean (soybean; [4]): 0
- Soybean plant response rating (soybean; [5]): 0
- Soybean plant response rating (soybean; [6]): 5
- Soybean plant response rating (soybean; [7]): 5
- Plant response rating, Rape (rape; [1]): 2
- Rape plant response rating (rape; [2]): 3
- Rape plant response rating (rape; [3]): 0
- Plant response rating, Rape (rape; [4]): 2
- Rape plant response rating (rape; [5]): 7
- Rape plant response rating (rape; [6]): 4
- Rape plant response rating (rape; [7]): 4
- Plant response rating, Nutsedge (purple nutsedge; [1]): 0
- Nutsedge plant response rating (purple nutsedge; [2]): 0
- Nutsedge plant response rating (purple nutsedge; [3]): 0
- Plant response rating, Nutsedge (purple nutsedge; [4]): 0
- Nutsedge plant response rating (purple nutsedge; [5]): 0
- Nutsedge plant response rating (purple nutsedge; [6]): 0
- Nutsedge plant response rating (purple nutsedge; [7]): 0
- Plant response rating, B. signalgrass (surinam grass; [1]): 0
- B. signalgrass plant response rating (surinam grass; [2]): 0
- B. signalgrass plant response rating (surinam grass; [3]): 3
- Plant response rating, B. signalgrass (surinam grass; [4]): 5
- B. signalgrass plant response rating (surinam grass; [5]): 8
- Plant response rating, B. signalgrass (surinam grass; [8]): 8
- B. signalgrass plant response rating (surinam grass; [6]): 4
- B. signalgrass plant response rating (surinam grass; [7]): 8
- Plant response rating, Cocklebur (cocklebur; [1]): 0
- Cocklebur plant response rating (cocklebur; [2]): 0
- Cocklebur plant response rating (cocklebur; [3]): 0
- Plant response rating, Cocklebur (cocklebur; [4]): 0
- Cocklebur plant response rating (cocklebur; [5]): 0
- Plant response rating, Cocklebur (cocklebur; [8]): 0
- Cocklebur plant response rating (cocklebur; [6]): 3
- Cocklebur plant response rating (cocklebur; [7]): 3
- Plant response rating, Giant foxtail (giant foxtail; [1]): 3
- Giant foxtail plant response rating (giant foxtail; [2]): 8
- Giant foxtail plant response rating (giant foxtail; [3]): 10
- Plant response rating, Giant foxtail (giant foxtail; [4]): 10
- Giant foxtail plant response rating (giant foxtail; [5]): 10
- Giant foxtail plant response rating (giant foxtail; [6]): 8
- Giant foxtail plant response rating (giant foxtail; [7]): 9
